According to patent US20240269139A1, “COMPOUNDS FOR TARGETED PROTEIN DEGRADATION OF KINASES” (DANA-FARBER CANCER INSTITUTE, INC., priority 2020, published 2024):
Like-named read-outs stand apart in the source and are kept apart here.

Key:
Format in all cases: cell-based
[1] = biological target: T1, protein kinases (human kinome) (Homo sapiens, UniProt O94768); settings: for logFC STK17B (O94768): direction down; for logFC: STK17B (O94768)
T1 sequence (O94768 1-372): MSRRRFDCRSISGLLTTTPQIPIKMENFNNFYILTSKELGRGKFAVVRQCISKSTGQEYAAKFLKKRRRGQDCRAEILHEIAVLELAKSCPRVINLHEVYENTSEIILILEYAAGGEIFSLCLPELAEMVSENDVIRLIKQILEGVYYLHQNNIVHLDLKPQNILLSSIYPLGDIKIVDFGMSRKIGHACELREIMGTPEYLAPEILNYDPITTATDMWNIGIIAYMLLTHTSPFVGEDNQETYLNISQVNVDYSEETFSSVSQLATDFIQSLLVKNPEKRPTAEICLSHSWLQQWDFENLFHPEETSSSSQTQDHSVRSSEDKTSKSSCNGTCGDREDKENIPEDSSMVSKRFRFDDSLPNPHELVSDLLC

[2] = biological target: T2, protein kinases (human kinome) (Homo sapiens, UniProt P33981); settings: for logFC TTK: Accession P33981
T2 sequence (P33981 1-857): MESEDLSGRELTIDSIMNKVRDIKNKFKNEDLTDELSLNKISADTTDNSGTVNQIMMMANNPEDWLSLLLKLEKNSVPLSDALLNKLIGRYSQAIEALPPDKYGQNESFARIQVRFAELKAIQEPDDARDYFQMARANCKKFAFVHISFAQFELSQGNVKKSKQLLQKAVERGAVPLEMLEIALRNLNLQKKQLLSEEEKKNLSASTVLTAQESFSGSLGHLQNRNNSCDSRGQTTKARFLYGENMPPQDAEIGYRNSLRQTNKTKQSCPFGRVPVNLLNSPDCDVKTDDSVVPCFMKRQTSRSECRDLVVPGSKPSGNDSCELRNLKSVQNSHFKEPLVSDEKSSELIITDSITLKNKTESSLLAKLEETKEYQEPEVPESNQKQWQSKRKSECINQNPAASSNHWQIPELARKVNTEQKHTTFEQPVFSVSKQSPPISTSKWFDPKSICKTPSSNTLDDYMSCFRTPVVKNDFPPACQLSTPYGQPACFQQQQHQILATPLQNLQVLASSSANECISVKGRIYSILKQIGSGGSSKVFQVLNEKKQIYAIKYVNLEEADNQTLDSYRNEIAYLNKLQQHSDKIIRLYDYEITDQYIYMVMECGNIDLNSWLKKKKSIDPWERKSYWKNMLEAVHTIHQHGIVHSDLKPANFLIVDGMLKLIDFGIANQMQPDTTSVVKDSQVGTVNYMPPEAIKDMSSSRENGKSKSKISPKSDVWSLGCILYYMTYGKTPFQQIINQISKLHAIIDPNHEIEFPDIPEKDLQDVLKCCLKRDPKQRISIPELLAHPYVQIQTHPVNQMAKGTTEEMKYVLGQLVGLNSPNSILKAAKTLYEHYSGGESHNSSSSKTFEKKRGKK

[3] = biological target: T3, protein kinases (human kinome) (Homo sapiens, UniProt Q8TAS1)
T3 sequence (Q8TAS1 1-419): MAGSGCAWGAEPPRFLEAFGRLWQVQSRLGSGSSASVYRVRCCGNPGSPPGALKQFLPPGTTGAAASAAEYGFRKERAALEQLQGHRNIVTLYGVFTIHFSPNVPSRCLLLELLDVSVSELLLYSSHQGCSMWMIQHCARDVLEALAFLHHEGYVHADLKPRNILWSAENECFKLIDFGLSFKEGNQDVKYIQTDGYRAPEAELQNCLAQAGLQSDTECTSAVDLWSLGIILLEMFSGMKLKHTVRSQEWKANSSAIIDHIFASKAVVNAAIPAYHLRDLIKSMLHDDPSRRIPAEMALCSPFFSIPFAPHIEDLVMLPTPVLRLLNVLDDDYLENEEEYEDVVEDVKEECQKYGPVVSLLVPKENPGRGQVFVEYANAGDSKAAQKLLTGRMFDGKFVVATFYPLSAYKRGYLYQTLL

In the case of `O=C1CCC(N2C(=O)c3cccc(NCCCCCCCCN4CCC(NC(=O)c5[nH]ncc5NC(=O)c5c(Cl)cccc5Cl)CC4)c3C2=O)C(=O)N1` (stereo not shown) [MFH.5.126.1], the “logFC STK17B (O94768)” value ([1]; Experiment wp076) is reported as −0.5821, the logFC ([1]; experiment wp076) is reported as −0.5821 and the “logFC TTK” value ([2]; experiment wp076) is reported as −0.4412. For the same molecule, the “logFC TTK (P33981)” value ([2]; experiment wp076) was −0.4412, the “logFC UHMK1” value ([3]; Accession Q8TAS1, experiment wp076, direction down) was −0.4789 and the “logFC UHMK1” value ([3]; UHMK1 (Q8TAS1), experiment wp076) was −0.4789.
For `CC(C)S(=O)(=O)c1ccccc1Nc1nc(Nc2ccc(N3CCN(CCOCCNC(=O)CNc4cccc5c4C(=O)N(C4CCC(=O)NC4=O)C5=O)CC3)cc2)ncc1Cl` (stereo not shown) [SK.3.91], the “logFC STK17B (O94768)” value ([1]; Experiment wp016, 1 uM) was −0.327, the “logFC STK17B (O94768)” value ([1]; Experiment wp133, 4 hr) was −0.545 and the logFC ([1]; experiment wp016, 1 uM) was −0.327. The logFC ([1]; experiment wp133, 4 hr) was −0.545, the “logFC TTK” value ([2]; experiment wp103) was −0.3267 and the “logFC TTK” value ([2]; experiment wp107) was −0.4781. For the same molecule, the “logFC TTK” value ([2]; experiment wp133, 2 hr) was −0.3833, the “logFC TTK” value ([2]; experiment wp133, 4 hr) was −0.5052 and the “logFC TTK (P33981)” value ([2]; experiment wp103) was −0.3267. For the same molecule, the “logFC TTK (P33981)” value ([2]; experiment wp107) was −0.4781, the “logFC TTK (P33981)” value ([2]; experiment wp133, 2 hr) was −0.3833 and the “logFC TTK (P33981)” value ([2]; experiment wp133, 4 hr) was −0.5052. For the same molecule, the “logFC UHMK1” value ([3]; Accession Q8TAS1, experiment wp160, 2 hr, direction down) was −0.4144, the “logFC UHMK1” value ([3]; Accession Q8TAS1, experiment wp160, 4 hr, direction down) was −0.3959 and the “logFC UHMK1” value ([3]; UHMK1 (Q8TAS1), experiment wp160, 2 hr) was −0.4144. The “logFC UHMK1” value ([3]; UHMK1 (Q8TAS1), experiment wp160, 4 hr) was −0.3959.
